How the values were obtained:
[1] = target: T1, HSP27 (Homo sapiens, UniProt P04792); experiment: Capillary electrophoresis of the CS protein precipitates (precipitated citrate synthase as measure of HSP27 inhibition); format: biochemical; conditions: 10 μmol/L; 43° C. for 120 minutes; 750 μmol/L BVDU set at 1
Protocol: (§1) Since the heat-denatured protein aggregates of the citrate synthase from Example 1 are not water-soluble, these can be separated completely from the supernatant by means of centrifugation at room temperature at 16,000×g, 10 min. By using capillary electrophoresis, the compositions of the separated precipitates can be shown and quantified. The relative quantity of protein of precipitated citrate synthase serves as a measure of the efficacy of the test substances.
(§2) In each case, 481 nmol/L HSP27 and 1.44 μmol/L citrate synthase in 40 mmol/L HEPES buffer, pH 7.4, were employed. The relative quantity of protein of the precipitated citrate synthase in each case was normalized using a defined quantity of BSA as internal standard. The relative quantity of protein that precipitated when using 750 μmol/L BVDU was set at 1. The other test substances (2 representatives of phenothiazine derivatives of general formula (V), 2 representatives of purine derivatives of formula (I) or (II)) were each employed at a concentration of 10 μmol/L.
as §1, with “Example 2” for “Example 1”
as §2, with “nM” for “nmol/L”, “thymine” for “purine”, “were” for “were each”, “μmol/L in each case.” for “μmol/L.”
Otherwise, the experiments were performed as described above: […]

[2] = target: T1, HSP27; experiment: SpeedScreen gel filtration binding test (Sephadex G-25, detection by mass spectroscopy)
Excerpt: For the experimental validation of low-molecular-weight compounds which act as potential HSP27 inhibitors according to the in silico prediction, a method based on gel filtration was employed. The method for detecting molecular bonds using gel filtration was described in 2004 as “SpeedScreen” [Muckenschnabel et al., 2004] and was adapted to meet the requirements of the invention. […] For the separation, PD SpinTraps G-25 from GE Healthcare were used. During the 2-minute centrifugation at 800×g (according to operating instructions), these columns allow molecules with a molecular weight of greater than or equal to 5000 g/mol to pass through, while smaller molecules are retained in the matrix. The target protein HSP27 has a molecular weight of 27000 g/mol and therefore passes through the matrix. […] Non-bound low-molecular-weight compounds are retained by the matrix. Molecules that have passed through the matrix can then be detected by mass spectroscopy. This enables “binders” to be differentiated from “non-binders”. For the experimental validation of low-molecular-weight compounds which act as potential HSP27 inhibitors according to the in silico prediction, a method based on gel filtration was employed. […] Molecules that have passed through the matrix can then be detected by mass spectroscopy. […]

[3] = system: RPMI-8226 cells; experiment: Development of resistance to bortezomib in RPMI-8226 cells; format: cell-based; conditions: bortezomib 0.2-0.4 ng/ml, plus 0.75 μmol/L inhibitor
Protocol: The cell line RPMI-8226 (DMSZ 402) is a “multiple myeloma” cell line and was chosen because bortezomib is employed as a standard therapy for multiple myeloma. RPMI-8226 cells respond to bortezomib, express HSP27 and develop resistance to Velcade. RPMI-8226 cells were seeded at a cell count of 100,000 cells/ml in each case and regularly passaged. […] In contrast, for RPMI 8226 cells that were treated with 30 μmol/L BVDU, a final cell count of 160,000 cells/ml was detected whereas the final cell count for the culture without the addition of an HSP27 inhibitor amounted to 350,000 cells/ml. As a control, RPMI 8226 cells were treated with the respective test substances alone, FIG. 4b.

T1 sequence (P04792 whole entry): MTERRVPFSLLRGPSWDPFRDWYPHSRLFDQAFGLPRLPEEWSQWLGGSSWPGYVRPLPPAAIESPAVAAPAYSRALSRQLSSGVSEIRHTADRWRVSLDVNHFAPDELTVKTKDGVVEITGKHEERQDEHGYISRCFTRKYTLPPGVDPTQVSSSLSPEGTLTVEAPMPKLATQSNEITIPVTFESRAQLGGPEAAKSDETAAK

## CC(=O)c1ccc2c(c1)N(CCCN(C)C)c1ccccc1S2 [Acepromazine]
[1]
  Rel. quantity of protein prec. CS: 0.99
[2]
  Binding to HSP27 by SpeedScreen (passage through the Sephadex G-25 matrix): tested positively
[3]
  development of resistance to bortezomib: significantly inhibited
